# Data from the supplement of paper PMC10307832.
# Key:
# Assay in all cases: relative viability (nuclei count vs DMSO), 5 days (fraction); higher = more cells survive
# Sorafenib + Decitabine = compound: CNC(=O)c1cc(Oc2ccc(NC(=O)Nc3ccc(Cl)c(C(F)(F)F)c3)cc2)ccn1 [Sorafenib] + Nc1ncn([C@H]2C[C@H](O)[C@@H](CO)O2)c(=O)n1 [Decitabine] (partner 2 µM)
# Method in brief: (§1)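 Lung cancer cell lines, seeded in 1536-well plates, were treated the following day by pin tool with a single drug or with five library-drug doses (not always all listed) in √10 steps on top of a fixed anchor-drug dose. Cells were fixed and nuclei stained in one step after 5 days, and nuclei were counted. Relative viability is the nuclei count for treated wells divided by that for vehicle wells, reported as medians of duplicate plates.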
# Sorafenib + Alpelisib = compound: CNC(=O)c1cc(Oc2ccc(NC(=O)Nc3ccc(Cl)c(C(F)(F)F)c3)cc2)ccn1 [Sorafenib] + Cc1nc(NC(=O)N2CCC[C@H]2C(N)=O)sc1-c1ccnc(C(C)(C)C(F)(F)F)c1 [Alpelisib] (partner 2 µM)
# Method in brief: as §1
# Sorafenib + Tozasertib = compound: CNC(=O)c1cc(Oc2ccc(NC(=O)Nc3ccc(Cl)c(C(F)(F)F)c3)cc2)ccn1 [Sorafenib] + Cc1cc(Nc2cc(N3CCN(C)CC3)nc(Sc3ccc(NC(=O)C4CC4)cc3)n2)n[nH]1 [Tozasertib] (partner 0.1 µM)
# Method in brief: as §1
# Sorafenib + Bortezomib = compound: CNC(=O)c1cc(Oc2ccc(NC(=O)Nc3ccc(Cl)c(C(F)(F)F)c3)cc2)ccn1 [Sorafenib] + CC(C)C[C@H](NC(=O)[C@H](Cc1ccccc1)NC(=O)c1cnccn1)B(O)O [Bortezomib] (partner 0.002 µM)
# Method in brief: as §1
# Sorafenib + Navitoclax = compound: CNC(=O)c1cc(Oc2ccc(NC(=O)Nc3ccc(Cl)c(C(F)(F)F)c3)cc2)ccn1 [Sorafenib] + CC1(C)CCC(c2ccc(Cl)cc2)=C(CN2CCN(c3ccc(C(=O)NS(=O)(=O)c4ccc(N[C@H](CCN5CCOCC5)CSc5ccccc5)c(S(=O)(=O)C(F)(F)F)c4)cc3)CC2)C1 [Navitoclax] (partner 0.5 µM)
# Method in brief: as §1
Cell Line,relative viability (Sorafenib + Decitabine; first compound 0.08 µM),relative viability (Sorafenib + Decitabine; first compound 0.253 µM),relative viability (Sorafenib + Decitabine; first compound 2.53 µM),relative viability (Sorafenib + Decitabine; first compound 8 µM),relative viability (Sorafenib + Alpelisib; first compound 0.08 µM),relative viability (Sorafenib + Alpelisib; first compound 0.253 µM),relative viability (Sorafenib + Alpelisib; first compound 2.53 µM),relative viability (Sorafenib + Alpelisib; first compound 8 µM),relative viability (Sorafenib + Tozasertib; first compound 0.08 µM),relative viability (Sorafenib + Tozasertib; first compound 0.253 µM),relative viability (Sorafenib + Tozasertib; first compound 2.53 µM),relative viability (Sorafenib + Tozasertib; first compound 8 µM),relative viability (Sorafenib + Bortezomib; first compound 0.08 µM),relative viability (Sorafenib + Bortezomib; first compound 0.253 µM),relative viability (Sorafenib + Bortezomib; first compound 2.53 µM),relative viability (Sorafenib + Bortezomib; first compound 8 µM),relative viability (Sorafenib + Navitoclax; first compound 0.08 µM),relative viability (Sorafenib + Navitoclax; first compound 0.253 µM),relative viability (Sorafenib + Navitoclax; first compound 2.53 µM),relative viability (Sorafenib + Navitoclax; first compound 8 µM)
NCI-H1734,0.479,0.445,0.484,0.431,0.685,0.654,0.633,0.568,0.266,0.224,0.249,0.212,1.01,1.14,0.885,0.346,0.858,0.721,0.721,0.492
NCI-H1755,0.72,0.715,0.753,0.634,0.977,0.93,0.857,0.694,0.498,0.532,0.471,0.456,0.921,0.945,0.988,0.689,1.02,0.987,0.924,0.705
NCI-H1915,0.26,0.254,0.268,0.247,0.998,0.922,0.909,1.07,0.454,0.409,0.397,0.374,1.01,0.766,0.923,0.99,0.785,0.706,0.681,0.798
NCI-H1975,0.431,0.383,0.365,0.353,0.643,0.789,0.77,0.323,0.873,0.704,0.643,0.162,0.404,0.375,0.445,0.201,1.01,1.1,1.18,0.853
NCI-H1993,–,0.478,0.665,0.489,0.684,0.7,0.666,0.674,0.601,0.565,0.584,0.608,1.6,0.994,1.24,1.07,1.07,0.973,0.914,0.753
NCI-H2009,0.375,0.394,0.315,0.227,1.22,–,1.03,0.842,0.775,0.666,0.723,0.498,0.898,0.689,0.912,0.522,1.11,1.02,1.1,0.937
NCI-H2023,0.235,0.232,0.22,0.189,0.659,0.603,0.613,0.438,0.282,0.278,0.229,0.142,1.2,1.02,0.945,0.319,1.02,0.984,1.01,0.978
NCI-H2085,0.608,0.566,0.573,0.49,0.998,0.878,0.882,0.777,0.849,0.833,0.611,–,1.09,0.824,1.01,0.91,1.21,1.07,1.17,0.901
NCI-H2087,0.304,0.231,0.172,0.107,0.88,0.81,0.924,0.341,0.26,0.241,0.212,0.152,0.76,0.708,0.849,0.454,1.05,0.772,0.892,0.29
NCI-H2126,0.631,0.524,0.562,0.643,0.788,0.743,0.855,–,0.93,0.842,0.866,–,1.14,1.17,1.09,1.16,0.892,0.782,0.888,0.867
NCI-H2347,0.592,0.628,0.675,0.594,1.2,0.89,–,1,0.646,0.599,0.509,0.426,1.13,0.997,1.02,0.868,0.932,0.676,0.84,0.815
NCI-H2405,0.754,0.726,0.737,0.577,1,0.857,0.627,0.423,0.819,0.743,0.751,0.613,1.03,0.905,1,0.926,1.16,0.88,0.7,0.348
NCI-H3122,0.384,0.467,0.375,0.189,0.799,0.971,0.79,0.409,0.44,0.363,0.363,0.301,0.993,0.984,1.06,0.952,1.04,1.06,1.03,0.753
PC-3 [JPC-3],0.835,0.763,0.837,0.826,1.07,0.987,1.08,1.12,0.879,0.846,0.881,0.823,0.875,0.726,0.818,0.928,0.883,0.775,0.806,0.877
PC-14,0.22,0.177,0.225,0.156,1,0.848,0.854,0.753,0.588,0.555,0.593,0.577,0.911,0.89,0.827,0.316,1.02,0.949,0.888,0.955
RERF-LC-KJ,0.74,0.673,0.586,0.473,1.03,0.989,0.951,0.906,0.532,0.489,0.41,0.221,1.12,0.992,1.17,0.992,0.932,1.11,0.867,0.705
